Reference: patent US20080206347A1, “Pharmaceutical Formulations Comprising Active Pharmaceutical Principles Adsorbed on Titanium Dioxide Nanoparticles” (FLAMMA S.P.A., priority 2005, published 2008)
Several values for one entry are separate records, joined by “and”; a condition that tells them apart may be missing. Equal entries are not always repeated. Where two headings read alike, the source gives them in different places.

Experiments:
[1] = Desorption of Sodium Risedronate from TiO2 in aqueous solution at different pH; format: physicochemical; conditions: for amount released, % of the initial concentration on TiO2: pH=8, 25° C.
Procedure: Desorption of Sodium Risedronate from TiO2 at 25° C. was studied in aqueous solution at different pH values.
The desorption as function of time of Sodium Risedronate from TiO2 was studied in aqueous solution at pH 9 and at 36° C.
(§1) To an aqueous solution containing 625 mg of Sodium Risedronate in 100 ml of deionized water 3.00 g of TiO2 was added. The suspension was stirred for 72 h at room temperature and then centrifuged at 4000 rpm for 10 min. The solid was suspended twice in a pH 1 HCl solution, stirred for 20 min and centrifuged. The solid was finally dried at 40° C. under vacuum.
Nine separate 30 mg portions of TiO2 adsorbed with Sodium Risedronate were suspended in 10 ml of pH 9 NaOH solutions and left stirring for different times in the range 1-120 min. During drug desorption the pH of the suspension was kept at the original value by small addition of NaOH solution. In all cases the concentration of desorbed drug was corrected for volume changes.

[2] = in vivo; cited from earlier work
[3] = Adsorption of drug on TiO2 nanoparticles; format: physicochemical
Procedure: To a stirred solution of Sodium Risedronate (625 mg) in deionized water (100 ml) increasing amounts of nanocrystalline TiO2 were added (ca. 20 nm nanoparticle size). […] This limit probably corresponds to a total surface coverage of the nanoparticles.
190 mg of Sodium Risedronate were adsorbed at 25° C. on 3.00 g of TiO2 nanoparticles having an average diameter of 20-25 nm.
as §1
(§2) A NMR-based method was developed since alendronate lacks the chromophoric group of risedronate. The NMR experiments were carried out in H2O instead of D2O (or other deuterated solvents) simply using the aqueous solutions obtained after removal of TiO2 by centrifugation without concentration or further treatment. Only a small amount of C6D6 in a sealed capillary tube (reusable) inserted into the NMR tube was required to achieve the field lock. […] To determine the concentration of sodium alendronate in aqueous solutions, a known amount of an internal standard was added before each NMR measurements, namely 1,3,5-triaza-7-phospha-adamantane, a water-soluble phosphine.
TiO2 (25 nm, 1.00 g) was added to a solution of Sodium Alendronate trihydrated (207 mg, 0.64 mmol) in H2O (50 ml) and the resulting suspension (pH 4.5) was vigorously stirred in the dark at 25° C. for 48 h, then centrifuged (4,000 rpm, 5 min). The cloudy supernatant was recovered, treated with solid NaCl (ca. 3 g), kept at room temperature for 2 h, and centrifuged (4,000 rpm, 5 min). To the resulting solution was added 1,3,5-triaza-7-phospha-adamantane and the concentration of residual sodium alendronate was estimated by ^31P-NMR as described above.

[4] = Procedure: as §2
Sodium Alendronate trihydrated was adsorbed on TiO2 as described above. After centrifugation, the recovered solid was dried at 40° C./0.1 mbar for 6 h. A suspension of this solid in 50 ml of aqueous HCl (pH 1.0) or NaOH (pH 9.0) was vigorously stirred at the stated temperature in a nitrogen atmosphere. The pH of the basic solution was constantly monitored and maintained at the initial level by addition of 0.05 M NaOH.

[5] = 250 mg of TiO2 carrying 16 mg of drug
[6] = 1.00 g TiO2 (25 nm), 24 h stirring, 25° C.

Compound | amount of drug released in the intestine [1, 5] [mg] | release in the gastroesophageal region [1, 5] | adsorbed drug desorbed ([1]; pH 9, 36° C., after 1 minute) [%] | amount of drug released ([1]; pH 9, 36° C., in the next 60 min) [%] | amount of drug released ([1]; pH 9, 36° C., longer times (up to 120 min), constant) [%] | amount released, % of the initial concentration on TiO2 ([1]; after 30 min) [%] | amount released, % of the initial concentration on TiO2 ([1]; after 2 hours) [%] | oral bioavailability [2] [%] | amount of drug which can be adsorbed on the surface of the nanocrystalline substrate ([3]; 625 mg in 100 ml deionized water, increasing amounts of TiO2 ca. 20 nm, limit value) [%] | amount adsorbed on TiO2 ([3]; on 3.00 g of TiO2 nanoparticles (20-25 nm), 25° C./room temperature, from 625 mg) [mg] | amount adsorbed on TiO2 ([3]; 1.00 g TiO2 (25 nm), 207 mg in 50 ml H2O, 48 h stirring, 25° C.) [mg] | amount adsorbed on TiO2 [3, 6] [mg] | amount adsorbed, % of the initial amount [3, 6] [%] | amount adsorbed, % of the initial amount ([3]; 1.00 g TiO2 (25 nm), 48 h stirring, 25° C.) | release to the intestine [4, 5] [mg] | Desorption ([4]; pH 1.0, 2 h stirring at 25° C.) | Desorption ([4]; pH 9.0, 30 min stirring at 25° C.) [%] | Desorption ([4]; pH 9.0, 2 h stirring at 25° C.) [%] | Desorption ([4]; pH 9.0, 6 h stirring at 37° C.)
O=P(O)(O)C(O)(Cc1cccnc1)P(=O)(O)O [Sodium Risedronate] | 6 to 9 | negligible release | 25 | 36 | 36 | ~35 | 35 | 0.63 | 31 | 190 |  |  |  |  |  |  |  |  | 
NCCCC(O)(P(=O)(O)O)P(=O)(O)O [Sodium Alendronate] |  |  |  |  |  |  |  |  |  |  | 71 | 66 | 32 | 34% and 26-34% | 4 | not detected | 8 | 12 | 22% and 16-22%
